Reference: patent US20070061917A1, “Methods and compositions for the expression of a polynucleotide of interest” (Pioneer Hi-Bred International, Inc., priority 2005, published 2007)

Columns and labels:
[1] = system: infected GS3 embryos with the GAT construct; assay: Glyphosate response of embryos infected with the GAT construct; assay type: cell-based, maize; conditions: about 40 days culture
Procedure: (§1) A glyphosate kill curve was established by testing non-transformed embryos response on media with different levels of glyphosate. GS3 embryos were isolated from an immature ear and placed onto media containing glyphosate at 0.0, 0.5, 1.0, and 2.0 mM. After about 40 days culture, the response of the embryos were observed and recorded. Similarly, infected GS3 embryos with the GAT construct were placed onto media containing glyphosate at 0.0, 0.5, 1.0, and 2.0 mM. After about 40 days culture, the response of the infected embryos were observed and recorded (FIG. 7).
(§2) Western or PCR analysis has confirmed that these resistant calli were transformed. Currently, GAT has performed consistently as an effective selectable marker with excellent transformation efficiency in both GS3 and introEF09B genotypes (FIG. 9 and Table 1).

[2] = system: non-transformed GS3 embryos; assay: Glyphosate kill curve on non-transformed embryos; assay type: cell-based, maize; conditions: about 40 days culture
Procedure: as §1, §2

Which results are given for `O=C(O)CNCP(=O)(O)O` [glyphosate]?
embryo callus response ([1]; 0.5 mM glyphosate in medium): more callus was grown; embryo callus response ([1]; 1.0 mM glyphosate in medium): some embryos initiated resistant callus; embryo callus response ([1]; 2.0 mM glyphosate in medium): some embryos initiated resistant callus; embryo callus response ([2]; 0.5 mM glyphosate in medium): about half of the embryos; embryo callus response ([2]; 1.0 mM glyphosate in medium): very little callus growth; embryo callus response ([2]; 2.0 mM glyphosate in medium): very little callus growth
